# Measured values reported in patent publication US12162836B2, “N-acyl-{4-[(4-aryl-phenyl)sulfonylmethyl]piperidine} compounds and their therapeutic use” (Modern Biosciences Limited, priority 2019, dated 2024).
# Tests used:
# CYP1A2 = CYP1A2 (Homo sapiens (Human), UniProt P05177); assay: Human Cytochrome P450 Inhibition Assay (Bactosomes); format: in vitro ADME; settings: recombinant enzyme
# Method: (§1) The ability of test compounds to inhibit five of the most relevant cytochrome P450 enzymes was measured by determination of the activity of cytochrome P450 enzymes in recombinant cytochrome preparations, called Bactosomes (Cypex Ltd, Dundee, Scotland UK DD2 1 NH), in the presence of a specific probe substrate. Bactosomes are a highly efficient and cost-effective source of recombinant CYP450s which have a higher specific activity of enzyme compared to other sources, such as liver microsomes. […] The following CYP450 isoforms were assayed: CYP1A2, CYP2C9, CYP2C19, CYP2D6 and CYP3A4. The study of CYP450 inhibition potential in Bactosomes is accepted as a valuable model permitting rapid prediction of potential drug-drug interactions in vivo (see, e.g., Weaver et al., 2003).
# (§2) Bactosomes were obtained from a commercial source (Cypex, Scotland, UK). Test compounds were incubated with Bactosomes at 6 concentrations. Samples were incubated for 10 minutes, after which the reaction was stopped and the samples analysed by LC-MS/MS Multiple Reaction Monitoring (MRM) for the presence/amount of substrate probe.
# (§3) CYP450 enzymes (final protein 75 pmol/mL for CYP1A2; 12.5 pmol/mL for CYP2C19; and 25 pmol/mL for CYP2C9, 2D6 and 3A4), 0.1 M phosphate buffer pH 7.4, probe and test compound (final concentration 50, 15.8, 5, 1.58, 0.5 and 0.158 μM; diluted from 10 mM stock solution to give a final DMSO concentration of 1%) were pre-incubated at 37° C. for 5 minutes. The reaction was initiated by the addition of 20 μL of 10 mM NADPH in phosphate buffer. The final incubation volume was 200 μL. The following control inhibitors were used for each CYP450 inhibition assay: CYP1A2: α-naphthoflavone; CYP2C9: sulfaphenazole; CYP2C19: tranylcypromine; CYP2D6: quinidine; CYP3A4: ketoconazole.
# (§4) Each compound was incubated for 10 minutes at 37° C. The reactions were stopped by the addition of methanol (final composition 1:1, aqueous: methanol). The incubation plates were shaken, chilled at […] for 2 hours, and centrifuged at 3500 rpm for 15 minutes at 4° C. to precipitate the protein.
# CYP2C19 = CYP2C19 (Homo sapiens (Human), UniProt P33261); assay: as above; format: in vitro ADME; settings: recombinant Bactosomes, 10 minutes
# CYP2C19, sequence (P33261 whole entry): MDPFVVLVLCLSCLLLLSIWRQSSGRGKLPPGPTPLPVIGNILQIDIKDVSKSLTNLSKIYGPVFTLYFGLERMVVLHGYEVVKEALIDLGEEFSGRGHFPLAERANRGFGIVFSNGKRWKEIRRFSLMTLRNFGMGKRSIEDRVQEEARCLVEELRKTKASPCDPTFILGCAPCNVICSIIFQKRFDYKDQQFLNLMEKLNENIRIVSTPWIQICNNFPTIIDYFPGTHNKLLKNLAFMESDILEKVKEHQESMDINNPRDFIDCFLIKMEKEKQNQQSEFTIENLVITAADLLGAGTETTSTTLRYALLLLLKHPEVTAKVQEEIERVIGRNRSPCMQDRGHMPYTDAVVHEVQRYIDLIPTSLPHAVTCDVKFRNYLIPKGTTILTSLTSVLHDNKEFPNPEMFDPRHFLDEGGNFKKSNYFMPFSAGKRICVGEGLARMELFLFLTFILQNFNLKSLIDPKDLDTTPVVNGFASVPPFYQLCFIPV
# Method: as §1, §2, §3, §4
# CYP2C9 = CYP2C9 (Homo sapiens (Human), UniProt P11712); assay: as above; format: in vitro ADME; settings: recombinant Bactosomes, 10 minutes
# CYP2C9, sequence (P11712 whole entry): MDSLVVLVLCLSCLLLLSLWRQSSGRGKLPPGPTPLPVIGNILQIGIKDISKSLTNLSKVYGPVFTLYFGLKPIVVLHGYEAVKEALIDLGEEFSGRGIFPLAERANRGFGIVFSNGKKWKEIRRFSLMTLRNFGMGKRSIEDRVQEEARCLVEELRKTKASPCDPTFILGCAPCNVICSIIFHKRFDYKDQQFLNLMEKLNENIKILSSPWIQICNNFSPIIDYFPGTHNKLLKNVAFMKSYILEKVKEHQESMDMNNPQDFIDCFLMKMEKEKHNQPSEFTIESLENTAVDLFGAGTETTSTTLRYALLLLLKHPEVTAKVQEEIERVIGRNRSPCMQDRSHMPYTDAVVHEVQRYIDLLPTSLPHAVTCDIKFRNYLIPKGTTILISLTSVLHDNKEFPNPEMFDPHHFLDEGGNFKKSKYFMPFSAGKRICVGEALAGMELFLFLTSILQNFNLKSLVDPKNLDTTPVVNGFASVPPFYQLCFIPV
# Method: as §1, §2, §3, §4
# CYP2D6 = CYP2D6 (Homo sapiens (Human), UniProt P10635); assay: as above; format: in vitro ADME; settings: recombinant Bactosomes, 10 minutes
# CYP2D6, sequence (P10635 whole entry): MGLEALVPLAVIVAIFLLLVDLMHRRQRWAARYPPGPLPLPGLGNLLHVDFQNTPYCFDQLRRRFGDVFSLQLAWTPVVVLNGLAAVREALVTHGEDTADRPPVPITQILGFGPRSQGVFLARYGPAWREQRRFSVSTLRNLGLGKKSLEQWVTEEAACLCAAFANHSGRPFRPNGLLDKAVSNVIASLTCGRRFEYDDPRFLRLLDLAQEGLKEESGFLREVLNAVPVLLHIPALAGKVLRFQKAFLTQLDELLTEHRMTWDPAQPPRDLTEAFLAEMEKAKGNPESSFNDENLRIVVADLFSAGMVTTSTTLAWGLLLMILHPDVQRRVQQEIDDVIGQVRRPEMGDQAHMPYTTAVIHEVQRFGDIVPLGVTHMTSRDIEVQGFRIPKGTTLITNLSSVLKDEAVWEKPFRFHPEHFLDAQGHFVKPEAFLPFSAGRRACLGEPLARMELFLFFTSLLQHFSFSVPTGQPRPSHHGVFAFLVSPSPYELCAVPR
# Method: as §1, §2, §3, §4
# CYP3A4 = CYP3A4 (Homo sapiens (Human), UniProt P08684); assay: as above; format: in vitro ADME; settings: recombinant Bactosomes, 10 minutes
# CYP3A4, sequence (P08684 whole entry): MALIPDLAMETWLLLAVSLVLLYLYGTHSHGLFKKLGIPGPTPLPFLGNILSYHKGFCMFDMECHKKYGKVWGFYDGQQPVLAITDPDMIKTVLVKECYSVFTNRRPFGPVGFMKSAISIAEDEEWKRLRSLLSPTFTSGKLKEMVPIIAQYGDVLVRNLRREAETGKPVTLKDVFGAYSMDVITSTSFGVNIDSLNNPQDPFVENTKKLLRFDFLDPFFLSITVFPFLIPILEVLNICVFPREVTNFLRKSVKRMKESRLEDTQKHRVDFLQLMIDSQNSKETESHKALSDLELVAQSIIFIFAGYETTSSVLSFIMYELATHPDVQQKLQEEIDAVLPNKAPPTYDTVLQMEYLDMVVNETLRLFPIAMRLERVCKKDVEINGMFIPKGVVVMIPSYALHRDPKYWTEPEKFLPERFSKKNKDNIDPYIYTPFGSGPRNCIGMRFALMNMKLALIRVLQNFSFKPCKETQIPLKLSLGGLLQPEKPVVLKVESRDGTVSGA
# Method: as §1, §2, §3, §4
# [1] = Rodent Pharmacokinetics Studies; format: in vivo, rat; settings: rats
# From the text: Absorption and metabolic stability were studied using an in vivo pharmacokinetics assay.
# […] Test compounds were formulated in 0.5% carboxymethylcellulose (CMC)/0.1% Tween-80 for administration via the oral route, or in 5% DMSO/10% solutol in saline for administration via the intravenous route. For compound HMC-C-01-A the oral administration was formulated in 2% dimethylacetamide/20% hydroxypropyl-β-cyclodextrin in water. Animals were given free access to food throughout the study except for fasting overnight and until 2 hours post dose on the day of dosing.
# Blood samples were taken from the retro-orbital plexus at the following time points and placed in microtubes containing 20% K2EDTA solution:
# Oral Dosing: predose; 0.25, 0.5, 1, 2, 4, 6, 8, 12 and 24 hours post dose.
# Blood samples were centrifuged to obtain plasma, which was transferred to a separate container and frozen at −20° C.
# For analysis, samples were thawed at room temperature and prepared by protein precipitation with acetonitrile spiked with internal standard (500 ng/mL glipizide) in the ratio 1:4 with plasma.
# The pharmacokinetic parameters for the test compounds were calculated by Phoenix WinNonlin version 8.0 (Certara, CA) using standard non-compartmental methods. Peak plasma concentrations (Cmax) and time of the peak plasma concentration (Tmax) were the observed values. The area under the plasma concentration-time curve (AUC) was determined by use of the linear trapezoidal rule up to the last measurable concentration (AUClast) and thereafter by extrapolation of the terminal elimination phase to infinity (AUCinf). The elimination phase half-life (t1/2) was calculated as 0.693/kel.
# [2] = tested on: Thp1 human monocytic cells; assay: Thp1 Monocyte ATP Production Assay (ATPlite); format: cell-based; settings: Homo sapiens, THP-1; Thp1 cells, 24 hour incubation; 9-point concentration range from 10 μM to 10 nM; mean of 2 independent experiments
# Method: In vitro potency of test compounds was determined by incubation with Thp1 human monocytic cells and subsequent determination of Adenosine TriPhosphate (ATP) levels using firefly luciferase.
# ATP is present in all metabolically active cells. When cells lose integrity, their ability to synthesise ATP is rapidly lost. […] See, e.g., Kang et al., 2015; Jiang et al., 2013. Levels of ATP can be monitored using a system based on firefly (Photinus pyralis) luciferase (see, e.g., Auld et al., 2009) using commercially available kits. A system known as ATPlite™ was using to measure effects of the test compounds on cellular viability in vitro. This one-step assay system is an adenosine triphosphate (ATP) monitoring system based on the production of light caused by the reaction of ATP from the cells with added luciferase and D-luciferin, as illustrated in the reaction scheme below:
# Thp1 cells were plated at 112500 cells per well in 125 μL RPMI-1640 (no glucose) with 1% FBS in 96-well plates. Test compounds were prepared as 100 mM solutions in DMSO. These stock solutions were diluted in DMSO and then diluted 1000× in culture medium (RPMI) before being added directly to the wells so as to give the desired final compound concentration. After a 24 hour incubation at 37° C./5% CO2, ATPLite™ (Perkin Elmer) was added to each well (1:10 v/v, 10 μL). The plate was then incubated at room temperature for 5 minutes and the emitted light was quantified on Viewlux with a measurement time of 0.3 seconds and binning 4×4.
# The average results for each test compound were expressed as a percent (%) of the average control value reflecting cell viability. The average values across the concentrations tested were then plotted and the IC50 for was calculated by fitting the data to a 4-parameter IC50 equation using software from Graf it (Erithacus Software). Each experiment was repeated twice and the data are presented as the mean IC50 from both experiments.
# [3] = Aqueous solubility in FaSSIF; format: physicochemical
# Method: Aqueous solubility was measured by equilibration of compounds with fasted state simulated intestinal fluid (FaSSIF) and quantified spectrophotometrically.
# Preparation of blank FaSSIF: 0.21 g of sodium hydroxide (NaOH) pellets, 1.97 g of dihydrogen sodium phosphate (NaH2PO4.2H2O) and 3.09 g of sodium chloride (NaCl) were dissolved in 400 mL of deionised water. The pH was adjusted to 6.5 using 1 M hydrochloric acid and further deionised water added to a final volume of 500 mL.
# Preparation of FaSSIF: 0.056 g of SIF Powder (containing sodium taurocholate and lecithin) (Pharses A G) was dissolved in 25 mL of blank FaSSIF and stirred until the powder was completely dissolved. The solution was allowed to stand for 2 hours during which it became opalescent; it was used within 24 hours. The final solution composition was characterised as follows: • Sodium taurocholate: 3 mM • Lecithin: 0.75 mM • Osmolarity: 270±10 mOsmol • pH: 6.5
# The optical density was measured at the end of the incubation period for test compounds and a reference used to determine solubility. In brief, two samples were prepared for each determination: a reference sample consisting of a stock solution of test compound in DMSO diluted in system solution (a phosphate free, low absorption buffer) and propanol; and a test sample (prepared in triplicate) consisting of 0.5 mL FaSSIF spiked with test compound at 0.2 mM. Each sample was incubated at room temperature for 16 hours with constant shaking at 250 rpm. At the end of the incubation period, 0.3 mL of each sample was filtered through a pION filter plate (PION, Woburn MA), diluted 1:1 with propanol and scanned using UV spectrophotometry at Amax ([…]) using a Spectra Max Plus—Version 2.1000 (Molecular Devices, Sunnyvale, CA), with pSOL Explorer solubility determination software (pION, Woburn, MA).
# FaSSIF solubility was calculated using the following formula:
# [formula] • wherein: • “OD” is the optical density; • “Cr” is the concentration of the reference (33.4 μM); and • “molecular weight” is for the test compound (e.g., 381.44 for ABD735).
# hERG = hERG (Homo sapiens (Human), UniProt Q12809); assay: hERG Ion Channel binding assay (3H astemizole displacement); settings: human, membranes of HEK293 cells stably expressing hERG, pH 7.4, probe 3H astemizole (1.5 nM); 30 μM; displacement of 3H astemizole, hERG-HEK293 membranes
# hERG, sequence (Q12809 whole entry): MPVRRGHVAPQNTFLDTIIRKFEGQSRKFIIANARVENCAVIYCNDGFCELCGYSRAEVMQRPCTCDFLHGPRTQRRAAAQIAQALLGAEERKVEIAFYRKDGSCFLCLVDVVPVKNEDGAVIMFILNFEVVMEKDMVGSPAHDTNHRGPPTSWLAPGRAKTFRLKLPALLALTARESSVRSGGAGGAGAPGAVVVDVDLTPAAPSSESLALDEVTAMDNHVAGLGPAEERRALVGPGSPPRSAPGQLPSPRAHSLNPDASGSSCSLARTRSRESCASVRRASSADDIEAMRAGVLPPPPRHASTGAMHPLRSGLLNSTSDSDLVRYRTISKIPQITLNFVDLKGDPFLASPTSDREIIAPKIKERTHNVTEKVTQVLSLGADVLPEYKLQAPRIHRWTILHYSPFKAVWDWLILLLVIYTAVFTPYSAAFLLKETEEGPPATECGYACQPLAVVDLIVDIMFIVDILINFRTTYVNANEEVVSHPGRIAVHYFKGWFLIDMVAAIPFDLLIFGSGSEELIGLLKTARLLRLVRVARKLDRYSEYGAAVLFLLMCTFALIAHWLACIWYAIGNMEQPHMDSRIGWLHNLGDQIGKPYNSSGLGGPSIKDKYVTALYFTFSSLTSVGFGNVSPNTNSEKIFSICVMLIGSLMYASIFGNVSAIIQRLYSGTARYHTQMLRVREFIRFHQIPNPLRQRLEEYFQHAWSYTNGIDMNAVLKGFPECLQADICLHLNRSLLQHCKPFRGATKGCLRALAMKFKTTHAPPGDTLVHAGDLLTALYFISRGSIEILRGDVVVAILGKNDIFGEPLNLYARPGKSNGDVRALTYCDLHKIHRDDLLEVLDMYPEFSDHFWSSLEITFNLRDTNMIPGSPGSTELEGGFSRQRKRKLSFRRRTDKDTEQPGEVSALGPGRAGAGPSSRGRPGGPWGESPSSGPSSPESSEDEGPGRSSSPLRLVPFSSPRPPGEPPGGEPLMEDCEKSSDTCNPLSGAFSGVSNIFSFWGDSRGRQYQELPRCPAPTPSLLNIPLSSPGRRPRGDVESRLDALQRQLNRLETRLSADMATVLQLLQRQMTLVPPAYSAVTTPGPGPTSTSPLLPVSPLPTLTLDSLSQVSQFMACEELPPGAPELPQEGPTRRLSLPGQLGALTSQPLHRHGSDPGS
# Method: (§5) The activity of the compounds against the hERG ion channel was tested using a binding assay in stably transfected Human Embryonic Kidney cells (hERG-HEK293). hERG-HEK293 cells were cultured in MEM medium (Invitrogen)+10% FBS, glutamine and non-essential amino acids at 37° C. To prepare membranes, cells were homogenised on ice, centrifuged at 650×g for 10 minutes at +4° C., and the resulting supernatant centrifuged at 48000×g for 10 minutes at +4° C. The pellet was resuspended in ice-cold 50 mM Tris-HCl buffer, 5 mM KCl (pH 8.5) and stored frozen in aliquots until use.
# (§6) For binding assays, membranes were thawed, re-suspended in assay buffer (10 mM HEPES pH 7.4, 0.1% BSA, 5 mM potassium chloride, 0.8 mM magnesium chloride, 130 mM sodium chloride, 1 mM sodium-EGTA, 10 mM glucose) and incubated with ^3H astemizole (1.5 nM), and with or without test compound at 25° C. for 60 minutes. Binding was determined following filtration of the membranes and washing in Tris-HCl buffer by scintillation counting of ^3H astemizole.
# (§7) The degree of binding of compounds to the hERG ion channel (%) was obtained by measuring the binding of ^3H astemizole and its displacement by test compound. A value of 0% indicates no binding and a value of 100% indicates complete displacement of the radiolabelled ligand.
# hERG ion channel = hERG ion channel (Homo sapiens (Human), UniProt Q12809); assay: as above
# hERG ion channel, sequence (Q12809 whole entry): as above
# Method: as §5, §6, §7
# CYP1A2, sequence (P05177 whole entry, canonical isoform): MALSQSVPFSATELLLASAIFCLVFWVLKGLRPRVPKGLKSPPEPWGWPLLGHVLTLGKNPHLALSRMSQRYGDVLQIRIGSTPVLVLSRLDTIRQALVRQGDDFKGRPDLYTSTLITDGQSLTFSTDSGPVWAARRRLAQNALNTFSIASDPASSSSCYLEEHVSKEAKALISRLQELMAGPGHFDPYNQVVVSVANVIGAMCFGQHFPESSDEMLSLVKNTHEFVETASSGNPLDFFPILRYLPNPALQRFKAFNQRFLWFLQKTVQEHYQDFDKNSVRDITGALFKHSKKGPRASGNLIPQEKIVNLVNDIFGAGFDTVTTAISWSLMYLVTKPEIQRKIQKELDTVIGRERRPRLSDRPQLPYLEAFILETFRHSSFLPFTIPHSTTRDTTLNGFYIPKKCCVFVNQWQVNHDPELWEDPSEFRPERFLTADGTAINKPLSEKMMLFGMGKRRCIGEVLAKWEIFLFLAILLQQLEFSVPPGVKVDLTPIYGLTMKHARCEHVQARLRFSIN
Compound,IC50 (CYP1A2) [µM],IC50 (CYP2C19) [µM],IC50 (CYP2C9) [µM],IC50 (CYP2D6) [µM],IC50 (CYP3A4) [µM],T1/2 ([1]; 5% DMSO/10% solutol in saline both routes (footnote 1)) [min],"Bioavail, F ([1]; 5% DMSO/10% solutol in saline for both oral and intravenous routes (footnote 1)) [%]","i.v. AUC ([1]; intravenous, 5% DMSO/10% solutol in saline (footnote 1)) [ng/mL/min]","p.o. AUC ([1]; oral, 5% DMSO/10% solutol in saline (footnote 1)) [ng/mL/min]",IC50 [2] [µM],solubility (in words) [3],"solubility at 16 h ([3]; kinetic from dmso stock, pH 6.5, 16 hours, room temperature) [µg/mL]","inhibition at 60 min, 30 µM (hERG) [%]","cardiac safety profile, hERG (in words) (hERG ion channel)"
"CC1(O)CCC(NS(=O)(=O)c2ccc(-c3ccc(C#N)cc3Cl)cc2)CC1 (centres unmarked) [HMC-C-09-A, reference compound]",23,> 50,34,> 50,33,–,–,–,–,–,–,–,–,–
"CC1(O)CCC(NS(=O)(=O)c2ccc(-c3cc(F)c(F)cc3F)cc2)CC1 (centres unmarked) [HMC-C-10-B, reference compound]",> 16,8.5,2.4,> 16,9.2,–,–,–,–,–,–,–,–,–
"CC1(O)CCC(NS(=O)(=O)c2ccc(-c3ccc(Cl)cc3C#N)c(Cl)c2)CC1 (centres unmarked) [HMC-C-11-A, reference compound]",11,5.1,2.7,9.3,12,–,–,–,–,–,–,–,–,–
"CC1(O)CCC(NS(=O)(=O)c2ccc(-c3ncc(Cl)cc3C#N)cc2)CC1 (centres unmarked) [HMC-N-05-A, reference compound]",36,> 50,27,> 50,> 50,48,88,891,3937,–,–,–,–,–
"CC(=O)N1CCC(C(C)S(=O)(=O)c2ccc(-c3ccc(F)cc3F)cc2)CC1 (centres unmarked) [NASMP-17, 1-(4-(1-((2′,4′-Difluoro-[1,1′-biphenyl]-4-yl)sulfonyl)ethyl)piperidin-1-yl)ethan-1-one]",–,–,–,–,–,–,–,–,–,4.6,particularly good solubility,77,14,particularly positive profile
